Laboratory results reported in patent publication US10689354B2, “Aminoazole derivative” (Teijin Pharma Limited, priority 2015, dated 2020).

Key:
human androgen receptor = biological target: T1, human androgen receptor (Homo sapiens, UniProt P10275); experiment: Reporter assay of an androgen receptor responsive sequence (luciferase, transiently transfected HEK293 cells); assay type: cell-based; conditions: 24 hours incubation, relative to activity of 100 nM DHT, read-out: AR transcriptive activity (pEC50) (converted)
T1 construct: expressed in transfected cells; host or cells: HEK293
T1 sequence (P10275 1-920): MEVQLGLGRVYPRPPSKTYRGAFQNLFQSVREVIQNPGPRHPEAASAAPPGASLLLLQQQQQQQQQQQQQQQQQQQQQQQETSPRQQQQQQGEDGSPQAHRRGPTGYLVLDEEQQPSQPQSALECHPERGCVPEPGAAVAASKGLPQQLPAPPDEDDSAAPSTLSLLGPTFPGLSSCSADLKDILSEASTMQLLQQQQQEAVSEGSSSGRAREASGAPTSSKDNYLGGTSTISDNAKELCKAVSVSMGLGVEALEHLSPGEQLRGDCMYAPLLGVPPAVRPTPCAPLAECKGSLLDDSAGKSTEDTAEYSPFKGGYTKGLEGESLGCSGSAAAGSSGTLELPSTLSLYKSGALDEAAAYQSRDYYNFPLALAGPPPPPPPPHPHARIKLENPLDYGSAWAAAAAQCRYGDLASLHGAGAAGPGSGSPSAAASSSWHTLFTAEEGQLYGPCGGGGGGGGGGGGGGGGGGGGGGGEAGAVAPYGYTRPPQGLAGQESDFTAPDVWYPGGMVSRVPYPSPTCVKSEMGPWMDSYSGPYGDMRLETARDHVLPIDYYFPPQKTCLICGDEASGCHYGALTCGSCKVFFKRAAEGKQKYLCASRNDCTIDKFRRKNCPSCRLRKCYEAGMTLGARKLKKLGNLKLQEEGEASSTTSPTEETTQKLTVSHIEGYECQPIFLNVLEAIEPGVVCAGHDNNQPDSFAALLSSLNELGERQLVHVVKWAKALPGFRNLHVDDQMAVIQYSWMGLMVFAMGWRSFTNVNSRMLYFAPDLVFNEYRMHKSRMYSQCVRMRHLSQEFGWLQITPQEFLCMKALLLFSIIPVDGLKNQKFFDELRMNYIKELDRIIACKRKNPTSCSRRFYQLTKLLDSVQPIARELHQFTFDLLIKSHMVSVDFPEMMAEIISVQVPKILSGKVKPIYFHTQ
Procedure, shortened: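 Agonism scored as pEC50, fitted by 4-parameter curve against the response to 100 nM DHT, from dual-luciferase readout after 24 h compound treatment. Cells were HEK293 co-transfected (3 h) with human AR expression vector, androgen-responsive firefly reporter and Renilla control, in charcoal-stripped serum.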

[1] = biological target: T2, androgen receptor (AR-LBD) (Rattus norvegicus, UniProt P15207); experiment: Evaluation of androgen receptor affinity (PolarScreen Androgen Receptor Competitor Assay Kit, Red; fluorescence polarization); conditions: 22° C. for 5 hours, relative to binding rate of 1 μM DHT, read-out: AR affinity (pEC50) (converted)
T2 construct: 5 μL of 2×AR-LBD/Fluoromone AL Red Complex contained in the kit; purchased Invitrogen
T2 sequence (P15207 651-882 limits assumed): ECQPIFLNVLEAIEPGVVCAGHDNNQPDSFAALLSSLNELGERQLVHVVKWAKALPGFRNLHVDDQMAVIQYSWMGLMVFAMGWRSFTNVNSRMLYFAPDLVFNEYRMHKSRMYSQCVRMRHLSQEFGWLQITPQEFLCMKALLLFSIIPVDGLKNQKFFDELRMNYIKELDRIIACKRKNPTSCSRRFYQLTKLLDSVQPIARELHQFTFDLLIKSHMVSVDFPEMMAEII
Procedure, shortened: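 Duplicate wells; compound plus AR-LBD tracer complex incubated 22° C for 5 h, then FP measured. Effect compared with 1 μM DHT; 50%-effect concentration expressed as pEC50.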

| Compound | EC50 (human androgen receptor) [nM] | EC50 [1] [nM] |
| --- | --- | --- |
| CCc1oc(N(Cc2ccc(OC(F)(F)F)cc2)c2ccc(C#N)cc2)nc1C(=O)NS(C)(=O)=O [Compound 632, 2-[4-cyano-N-[[4-(trifluoromethoxy)phenyl]methyl]anilino]-5-ethyl-N-methylsulfonyl-oxazole-4-carboxamide] | 1000 | 39.8 |
| Cc1sc(N(Cc2ccc(C(F)(F)F)c(F)c2)c2ccc(C#N)cc2)nc1C(=O)NS(C)(=O)=O [Example 167, 2-[4-cyano-N-[[3-fluoro-4-(trifluoromethyl)phenyl]methyl]anilino]-5-methyl-N-methylsulfonyl-thiazole-4-carboxamide] | 31.6 | 25.1 |
| Cc1sc(N(Cc2cc3ccccc3s2)c2ccc(C#N)cc2)nc1C(=O)NS(C)(=O)=O [Compound 51, 2-[N-(benzothiophen-2-ylmethyl)-4-cyano-anilino]-5-methyl-N-methylsulfonyl-thiazole-4-carboxamide] | 31.6 | 50.1 |
| Cc1sc(N(Cc2ncccc2O)c2ccc(C#N)cc2)nc1C(=O)NS(C)(=O)=O [Compound 492, 2-[4-cyano-N-[(3-hydroxyl-pyridyl)methyl]anilino]-5-methyl-N-methylsulfonyl-thiazole-4-carboxamide] | 1260 | 794 |
| CCS(=O)(=O)NC(=O)c1nc(N(CCc2ccc(C#N)cc2)CC2CCCCC2)sc1C [Compound 717, 2-[2-(4-cyanophenyl)ethyl-(cyclohexylmethyl)amino]-N-ethylsulfonyl-5-methyl-thiazole-4-carboxamide] | > 10000 | 1000 |
| Cc1oc(N(CCc2ccc(C#N)cc2)Cc2ccc(F)cc2Cl)nc1C(=O)NS(C)(=O)=O [Compound 554, 2-[(2-chloro-4-fluoro-phenyl)methyl-[2-(4-cyanophenyl)ethyl]amino]-5-methyl-N-methylsulfonyl-oxazole-4-carboxamide] | 794 | 39.8 |
| Cc1sc(N(CCc2ccc(C#N)cc2)Cc2ccc(OC(F)(F)F)cc2)nc1C(=O)NS(=O)(=O)Cc1cccnc1 [Compound 324, 2-[2-(4-cyanophenyl)ethyl-[[4-(trifluoromethoxy)phenyl]methyl]amino]-5-methyl-N-(3-pyridylmethylsulfonyl)thiazole-4-carboxamide] | 100 | 20 |
| Cc1sc(N(Cc2ccccc2OC(F)F)c2ccc(C#N)cc2)nc1C(=O)NS(C)(=O)=O [Compound 5, 2-[4-cyano-N-[[2-(difluoromethoxy)phenyl]methyl]anilino]-5-methyl-N-methylsulfonyl-thiazole-4-carboxamide] | 251 | 100 |
| Cc1oc(N(Cc2cccc(C#N)c2)c2ccc(C#N)cc2)nc1C(=O)NS(C)(=O)=O [Compound 617, 2-[4-cyano-N-[(3-cyanophenyl)methyl]anilino]-5-methyl-N-methylsulfonyl-oxazole-4-carboxamide] | > 10000 | 251 |
| Cc1sc(N(Cc2ccc(OC(F)(F)F)cc2)c2ccc(C#N)cc2)nc1C(=O)NS(=O)(=O)CCCCO [Example 201, 2-[4-cyano-N-[[4-(trifluoromethoxy)phenyl]methyl]anilino]-N-(4-hydroxybutylsulfonyl)-5-methyl-thiazole-4-carboxamide] | 39.8 | 39.8 |
| Cc1sc(N(Cc2ccc(Cl)cc2OC(F)F)c2ccc(C#N)cc2)nc1C(=O)NS(C)(=O)=O [Example 193, 2-[N-[[4-chloro-2-(difluoromethoxy)phenyl]methyl]-4-cyano-anilino]-5-methyl-N-methylsulfonyl-thiazole-4-carboxamide] | 501 | 31.6 |
| Cc1sc(N(CCc2cccc(Cl)c2)Cc2ccccc2)nc1C(=O)NS(C)(=O)=O [Compound 671, 2-[benzyl-[2-(3-chlorophenyl)ethyl]amino]-5-methyl-N-methylsulfonyl-thiazole-4-carboxamide] | 1580 | 50.1 |
| Cc1sc(N(Cc2ccc(OCC(F)F)cc2)c2ccc(C#N)cc2)nc1C(=O)NS(C)(=O)=O [Compound 577, 2-[4-cyano-N-[[4-(2,2-difluoroethoxy)phenyl]methyl]anilino]-5-methyl-N-methylsulfonyl-thiazole-4-carboxamide] | 501 | 63.1 |
| Cc1ccc(CN(c2ccc(C#N)cc2)c2nc(C(=O)NS(C)(=O)=O)c(C)s2)cc1F [Compound 115, 2-[4-cyano-N-[(3-fluoro-4-methyl-phenyl)methyl]anilino]-5-methyl-N-methylsulfonyl-thiazole-4-carboxamide] | 31.6 | 31.6 |
| COCCCS(=O)(=O)NC(=O)c1nc(N(CCc2ccc(C#N)cc2)Cc2ccc(Cl)cc2)sc1C [Compound 739, 2-[(4-chlorophenyl)methyl-[2-(4-cyanophenyl)ethyl]amino]-N-(3-methoxypropylsulfonyl)-5-methyl-thiazole-4-carboxamide] | 251 | 31.6 |
| COc1ccccc1CCN(c1ccc(C#N)cc1)c1nc(C(=O)NS(C)(=O)=O)c(C)s1 [Compound 376, 2-[4-cyano-N-[2-(2-methoxyphenyl)ethyl]anilino]-5-methyl-N-methylsulfonyl-thiazole-4-carboxamide] | 6310 | 100 |
| CS(=O)(=O)NC(=O)c1nc(N(Cc2cc3ccccc3s2)c2ccc(C#N)cc2)sc1Cl [Example 280, 2-[N-(benzothiophen-2-ylmethyl)-4-cyano-anilino]-5-chloro-N-methylsulfonyl-thiazole-4-carboxamide] | 25.1 | 50.1 |
| Cc1sc(N(CCn2cc(C#N)cn2)Cc2ccccc2)nc1C(=O)NS(C)(=O)=O [Compound 326, 2-[benzyl-[2-(4-cyanopyrazol-1-yl)ethyl]amino]-5-methyl-N-methylsulfonyl-thiazole-4-carboxamide] | 1000 | 631 |
| Cc1oc(N(Cc2cc3ccccc3s2)c2ccc(C#N)cc2)nc1C(=O)NS(C)(=O)=O [Compound 618, 2-[N-(benzothiophen-2-ylmethyl)-4-cyano-anilino]-5-methyl-N-methylsulfonyl-oxazole-4-carboxamide] | 126 | 20 |
| Cc1sc(N(CCc2ccc(Cl)cc2)Cc2ccc(C#N)cc2)nc1C(=O)NS(C)(=O)=O [Compound 503, 2-[2-(4-chlorophenyl)ethyl-[(4-cyanophenyl)methyl]amino]-5-methyl-N-methylsulfonyl-thiazole-4-carboxamide] | 1260 | 31.6 |
| Cc1sc(N(Cc2ccccc2)c2ccc(C#N)cc2F)nc1C(=O)NS(C)(=O)=O [Compound 487, 2-(N-benzyl-4-cyano-2-fluoro-anilino)-5-methyl-N-methylsulfonyl-thiazole-4-carboxamide] | 158 | 79.4 |
| Cc1sc(N(CC2CCCCCC2)c2ccc(C#N)cc2)nc1C(=O)NS(C)(=O)=O [Compound 365, 2-[4-cyano-N-(cycloheptylmethyl)anilino]-5-methyl-N-methylsulfonyl-thiazole-4-carboxamide] | 631 | 25.1 |
| Cc1sc(N(Cc2ncc(F)cc2Cl)c2ccc(C#N)cc2)nc1C(=O)NS(C)(=O)=O [Example 179, 2-[N-[(3-chloro-5-fluoro-2-pyridyl)methyl]-4-cyano-anilino]-5-methyl-N-methylsulfonyl-thiazole-4-carboxamide] | 1000 | 501 |
